# Experiments:
# Type in all cases: cell-based
# [1] = tested on: K. aerogenes (ATCC 13048) and P. aeruginosa (ATCC 9027); assay: Challenge testing in tryptic soy broth at pH 9, time points from ASTM 2574; details: pH 9, tryptic soy broth, up to one week
# Source text: EP testing evaluates results at the 2-day, 7-day, 14-day, and 28-day marks. […] Strains of K. aerogenes (ATCC 13048) and P. aeruginosa (ATCC 9027) were utilized for this testing as they are commonly found in many products, including without limitation cosmetics and coatings. These organisms were challenged in the soy broth using the same methods described in the Challenge Testing Methodology section. The time points were selected from ASTM 2574, which is a method for evaluating antimicrobial efficacy in waterborne emulsion based paints.
# [2] = tested on: A. brasiliensis, C. albicans, E. coli, P. aeruginosa, S. aureus; assay: Microbe challenge testing (USP 51 / EP) in tryptic soy broth growth media; details: for effectiveness against microbe strains compared to no antimicrobial: 0.5 wt. %; for concentration achieving passing efficacy according to EP criteria / concentration achieving passing efficacy according to USP-51 criteria / efficacy versus bacteria, yeast and mold: tryptic soy broth; for efficacy versus bacteria, yeast and mold: 30 minutes to 28 days
# Source text: (§1) One skilled in the art would be able to determine and utilize other industry testing methods useful to evaluate the efficacy of the present inventive compositions.
# (§2) EP testing evaluates results at the 2-day, 7-day, 14-day, and 28-day marks.
# (§3) For the European Pharmacopeia, a “pass” test for efficacy is a two-log reduction for bacteria after two days, three-log reduction for bacteria after […], two-log reduction for mold and yeast at 14 days and no increase at 28 days.
# As such, it is an exceptional test medium and surrogate for evaluating antimicrobial efficacy, particularly for water-based or aqueous applications, although its value is not limited as such.
# Product use applications involve a variety of pH conditions. […] In addition, antimicrobial compositions were added in amounts reflecting the wt. % used in an end use product, based on the total weight of all of the components of the end use product.
# The efficacy of 3-phenyl propanol in tryptic soy broth growth media at pH 6.5 versus a number of microbes was evaluated according to methods described in the Challenge Testing Methodology section, above.
# The efficacy of 3-phenyl propanol in tryptic soy broth growth media at pH 8.0 versus a number of microbes was evaluated according to methods described in the Challenge Testing Methodology section above.
# [3] = tested on: A. brasiliensis, C. albicans, E. coli, P. aeruginosa, S. aureus; assay: Microbe challenge testing (USP 51 / EP) in model skin lotion of Table 1
# Source text: as §1, §2, §3
# Skin Lotion Formulation Experimental—An exemplary, model skin lotion having a pH of 6.5 as set forth below in Table 1 was prepared for testing. The invention is not limited to use in this specific lotion but was used to illustrate the advantages of the invention.
# Use of 3-phenyl propanol in the skin lotion formulation as set forth in Table 1 above was evaluated according to methods described in the Challenge Testing Methodology section above. In this efficacy screen study reflected in FIGS. 18 and 19, only the time intervals at 2-day and 14-day were measured, as these are critical time points for USP-51 and European Pharmacopeia. In this example, a triblend or tri-component antimicrobial composition was used comprising 3-phenyl propanol added to the model skin lotion containing both sodium benzoate and benzyl alcohol to enhance the antimicrobial activity at pH 6.5, a common pH for skin lotions.
# (§4) In FIG. 21 and FIG. 22, use of 3-phenyl propanol in the skin lotion set forth in Table 1 above was evaluated according to methods described in the Challenge Testing Methodology section using the microbes identified in Example 1. In this example, 3-phenyl propanol was added to the model skin lotion with sodium benzoate at 0.5 wt. % to enhance the antimicrobial activity at pH 6.5. In these examples, 0.5 wt. % of 3-phenyl propanol in addition to 0.5 wt. % sodium benzoate was required to pass the EP 2 day and 14-day criteria.
# as §4, with “23” for “21”, “24,” for “22,”, “section above,” for “section”, “benzyl alcohol” for “sodium benzoate”, “8.0.” for “6.5.”
# Use of sodium benzoate and benzyl alcohol at pH 6.5 in the skin lotion set forth in Table 1 above was evaluated according to methods described in paragraphs the Challenge Testing Methodology section above, using the microbes identified in Example 1. Again, in this case, only 2-day and 14-day time points were measured.
compound,measurement,setting,value
"OCc1ccccc1 [benzyl alcohol, reference compound]",antimicrobial effectiveness over time,[1]; 2.5 wt. %,unexpected antimicrobial effectiveness
CC(CO)Cc1ccccc1 (stereo not drawn) [2-methyl-3-phenyl propanol],antimicrobial effectiveness over time,[1]; 0.5 wt. %,unexpected antimicrobial effectiveness
OCCCc1ccccc1 [3-phenyl propanol],effectiveness against microbe strains compared to no antimicrobial,"[2]; pH 3, tryptic soy broth, up to 28 days",demonstrated the effectiveness
same,effectiveness against microbe strains compared to no antimicrobial,"[2]; pH 10, tryptic soy broth",demonstrated the effectiveness
same,concentration achieving passing efficacy according to EP criteria,[2]; pH 6.5,1 wt. %
same,concentration achieving passing efficacy according to USP-51 criteria,[2]; pH 6.5,0.5 wt. %
same,"efficacy versus bacteria, yeast and mold","[2]; pH 6.5, various concentrations","efficacious versus bacteria, yeast and mold"
same,concentration achieving passing efficacy according to EP criteria,[2]; pH 8.0,1 wt. %
same,concentration achieving passing efficacy according to USP-51 criteria,[2]; pH 8.0,0.25 wt. %
same,"efficacy versus bacteria, yeast and mold","[2]; pH 8.0, various concentrations","efficacious versus bacteria, yeast and mold"
same,addition of 3-phenyl propanol meeting the two-day criteria of the European Pharmacopeia,[3]; skin lotion pH 6.5 with 0.25 wt. % sodium benzoate and 0.25 wt. % benzyl alcohol,0.35 wt. %
same,effect of small concentrations on performance against E. coli and S. aureus versus control (0 wt. %),"[3]; skin lotion pH 6.5 with 0.25 wt. % sodium benzoate and 0.25 wt. % benzyl alcohol, after 14 days",significantly decreased performance
same,loading of 3-phenyl propanol achieving the required 14-day efficacy under European Pharmacopeia criteria,"[3]; skin lotion pH 6.5 with 0.25 wt. % sodium benzoate and 0.25 wt. % benzyl alcohol, bacteria, mold and yeast",approximately 0.35 wt. %
same,3-phenyl propanol required to pass the EP 2 day and 14-day criteria,[3]; skin lotion pH 6.5 with 0.5 wt. % sodium benzoate,0.5 wt. %
same,3-phenyl propanol required to pass the EP 2 day and 14-day criteria,[3]; skin lotion pH 8.0 with 0.5 wt. % benzyl alcohol,0.5 wt. %

# Reference: patent US11917993B2, “Antimicrobial compositions” (LANXESS Corporation, priority 2017, dated 2024)
